Laboratory results from the supplement of paper PMC10307832.

Experiments:
Assay in all cases: relative viability (nuclei count vs DMSO), 5 days (fraction); higher = more cells survive
BMX-IN-1 + Olaparib = compound: C=CC(=O)Nc1cc(-n2c(=O)ccc3cnc4ccc(-c5ccc(NS(C)(=O)=O)cc5)cc4c32)ccc1C [BMX-IN-1] + O=C(c1cc(Cc2n[nH]c(=O)c3ccccc23)ccc1F)N1CCN(C(=O)C2CC2)CC1 [Olaparib] (partner 8 µM)
In short: (§1)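 For relative viability, nuclei counts in treated wells were divided by those in vehicle wells. Lung cancer cell lines had been pin-tool dosed in 1536-well plates the day after seeding and cultured for 5 days, then fixed and stained in one step (final 0.05% Triton X-100, 1% formaldehyde, 1 ug/ml Hoechst) and imaged at 4×. Doses were one drug alone or a fixed anchor-drug dose plus five library-drug doses (not always all listed) in √10 steps, and values are duplicate-plate medians.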

Ibrutinib + Lapatinib = compound: C=CC(=O)N1CCC[C@@H](n2nc(-c3ccc(Oc4ccccc4)cc3)c3c(N)ncnc32)C1 [Ibrutinib] + CS(=O)(=O)CCNCc1ccc(-c2ccc3ncnc(Nc4ccc(OCc5cccc(F)c5)c(Cl)c4)c3c2)o1 [Lapatinib] (partner 2 µM)
In short: as §1

PAC-1 + Olaparib = compound: C=CCc1cccc(/C=N/NC(=O)CN2CCN(Cc3ccccc3)CC2)c1O [PAC-1] + O=C(c1cc(Cc2n[nH]c(=O)c3ccccc23)ccc1F)N1CCN(C(=O)C2CC2)CC1 [Olaparib] (partner 8 µM)
In short: as §1

PAC-1 + Pictilisib = compound: C=CCc1cccc(/C=N/NC(=O)CN2CCN(Cc3ccccc3)CC2)c1O [PAC-1] + CS(=O)(=O)N1CCN(Cc2cc3nc(-c4cccc5[nH]ncc45)nc(N4CCOCC4)c3s2)CC1 [Pictilisib] (partner 1 µM)
In short: as §1

Cell Line | relative viability (BMX-IN-1 + Olaparib; first compound 0.02 µM) | relative viability (BMX-IN-1 + Olaparib; first compound 0.2 µM) | relative viability (BMX-IN-1 + Olaparib; first compound 0.6325 µM) | relative viability (BMX-IN-1 + Olaparib; first compound 2 µM) | relative viability (Ibrutinib + Lapatinib; first compound 0.005 µM) | relative viability (Ibrutinib + Lapatinib; first compound 0.01581 µM) | relative viability (Ibrutinib + Lapatinib; first compound 0.05 µM) | relative viability (Ibrutinib + Lapatinib; first compound 0.1581 µM) | relative viability (Ibrutinib + Lapatinib; first compound 0.5 µM) | relative viability (PAC-1 + Olaparib; first compound 0.02 µM) | relative viability (PAC-1 + Olaparib; first compound 0.06325 µM) | relative viability (PAC-1 + Olaparib; first compound 0.2 µM) | relative viability (PAC-1 + Olaparib; first compound 2 µM) | relative viability (PAC-1 + Pictilisib; first compound 0.02 µM) | relative viability (PAC-1 + Pictilisib; first compound 0.06325 µM) | relative viability (PAC-1 + Pictilisib; first compound 0.2 µM) | relative viability (PAC-1 + Pictilisib; first compound 2 µM)
HCC-366 | 0.416 | 0.406 | 0.442 | 0.361 | 1.07 | 0.978 | 1.02 | 0.959 | 1.19 | 0.314 | 0.411 | 0.306 | 0.378 | 0.203 | 0.142 | 0.149 | 0.184
HCC-827 | 0.597 | 0.635 | 0.652 | 0.629 | 0.169 | 0.206 | 0.208 | 0.174 | 0.173 | 0.65 | 0.696 | 0.6 | 0.646 | 1.12 | 1.01 | 0.99 | 0.983
HOP-62 | 0.403 | 0.485 | 0.33 | 0.379 | 1.04 | 0.922 | 1.08 | 1.13 | 1.12 | 0.408 | 0.273 | 0.438 | 0.502 | 0.653 | 0.573 | 0.689 | 0.726
IA-LM | 0.871 | 0.843 | 0.938 | 0.94 | 0.792 | 0.827 | 0.592 | 1.1 | 0.814 | 0.806 | 0.964 | 0.952 | 0.833 | 0.339 | 0.363 | 0.355 | 0.456
LC-2-ad | 0.829 | 0.848 | 0.674 | 0.733 | 0.938 | 0.577 | 0.972 | 0.911 | 0.968 | 0.704 | 0.712 | 0.35 | 0.635 | 0.523 | 0.588 | 0.511 | 0.56
LCLC-97TM1 | 0.383 | 0.597 | 0.413 | 0.367 | 0.69 | 0.913 | 1.41 | – | 0.931 | 0.364 | 0.524 | – | 0.338 | – | 0.206 | 0.178 | 0.231
LCLC-103H | 0.883 | 0.886 | 0.834 | 0.741 | – | – | – | – | – | 0.771 | 0.824 | 0.761 | 0.745 | 0.549 | 0.612 | 0.592 | 0.638
LK-2 | 0.799 | 0.69 | 0.775 | 0.902 | 0.602 | 0.93 | 0.956 | 0.877 | 0.769 | 0.774 | 0.704 | 0.673 | 0.837 | 0.612 | 0.607 | 0.642 | 0.502
LOU-NH91 | – | 0.978 | 0.946 | 0.862 | 0.638 | 0.786 | 0.774 | 0.737 | 0.694 | 0.884 | 0.908 | 0.92 | 0.879 | 0.494 | 0.521 | 0.545 | 0.514
LU99A | 0.25 | 0.259 | 0.265 | 0.229 | 0.936 | 1.08 | 1.1 | 1.04 | 0.995 | 0.247 | 0.282 | 0.271 | 0.257 | 0.32 | 0.271 | 0.313 | 0.322
LXF-289 | 1.32 | 1.19 | 1.12 | 1.14 | 0.918 | 0.903 | 0.932 | 0.88 | 0.923 | 1.07 | 1.03 | 1.05 | 1.03 | 0.846 | 0.727 | 0.739 | 0.792
NCI-H23 | 0.304 | 0.415 | 0.312 | 0.229 | 0.943 | 1.19 | 1.18 | 1.15 | – | 0.28 | 0.284 | 0.313 | 0.352 | 0.365 | 0.461 | 0.414 | 0.473
NCI-H322M | 0.781 | 0.836 | 0.77 | 0.72 | 0.527 | 0.652 | 0.621 | 0.512 | 0.585 | 0.762 | 0.782 | 0.74 | 0.834 | 0.4 | 0.513 | 0.499 | 0.332
NCI-H358 | 0.634 | 0.743 | 0.71 | 0.548 | 0.403 | 0.466 | 0.475 | 0.406 | 0.43 | 0.581 | 0.827 | 0.569 | 0.37 | 0.355 | 0.396 | 0.376 | 0.367
NCI-H441 | 0.52 | 0.658 | 0.619 | 0.591 | – | – | – | – | – | 0.468 | 0.69 | 0.483 | 0.491 | 0.447 | 0.583 | 0.552 | 0.377
NCI-H460 | 0.481 | 0.475 | 0.445 | 0.439 | 1.18 | 0.892 | 0.96 | 0.94 | 1.11 | 0.4 | 0.457 | 0.466 | 0.369 | 0.281 | 0.405 | 0.355 | 0.39
NCI-H520 | 0.323 | 0.368 | 0.301 | 0.273 | 0.788 | 0.789 | 0.934 | 0.907 | 0.78 | 0.382 | 0.383 | 0.361 | 0.33 | 0.266 | 0.303 | 0.256 | 0.35
NCI-H522 | 0.656 | 0.689 | 0.66 | 0.601 | – | – | – | – | – | 0.591 | 0.643 | 0.619 | 0.626 | – | – | – | –
NCI-H1563 | – | – | – | – | 0.867 | 0.866 | 0.959 | 0.945 | 1.02 | – | – | – | – | 0.641 | 0.695 | 0.752 | 0.63
NCI-H1648 | 0.994 | 0.849 | 0.958 | 0.925 | – | – | – | – | – | 0.573 | 0.646 | 0.889 | 0.832 | – | – | – | –
NCI-H2342 | 0.44 | 0.446 | 0.473 | 0.43 | – | – | – | – | – | 0.442 | 0.474 | 0.367 | 0.525 | – | – | – | –
SW 900 | 1.15 | 0.938 | 0.819 | 0.782 | – | – | – | – | – | – | 1.07 | 0.85 | 0.718 | – | – | – | –
